Assay results taken from patent US9096543B2, “Nuclear transport modulators and uses thereof” (Karyopharm Therapeutics Inc., priority 2012, dated 2015).
pIC50: −log10 of the molar value.

Tests used:
[1] = MTT Cell Proliferation Assay (CellTiter 96 AQueous One Solution, MTS); format: cell-based; conditions: human; 72 h treatment; cell line not given; read-out: Cytotoxicity [IC50]
Text: The CellTiter 96® AQueous One Solution cell proliferation assay (Promega) was used on MM1.S, Jurkat and HCT-116 cells to study the cytotoxic and cytostatic properties of the compounds. The assay is based on the cleavage of the tetrazolium salt, MTS, in the presence of an electron-coupling reagent PES (phenazine ethosulfate). The MTS tetrazolium compound is bioreduced by cells into a colored formazan product that is soluble in tissue culture medium. This conversion is presumably accomplished by NADPH or NADH produced by dehydrogenase enzymes in metabolically active cells. Assays are performed by adding a small amount of the CellTiter 96® AQueous One solution reagent directly to culture wells, incubating for 1-4 hours and then recording the absorbance at 490 nm with a 96-well plate reader. […] The cells were seeded at 5×10^3 to 1.5×10^4 cells (depending on cell type) in each well of 96-well plate in 100 μL of fresh culture medium and adherent cells were allowed to attach for overnight. The stock solutions of the compounds were diluted in cell culture medium to obtain eight concentrations of each drug, ranging from 1 nM to 30 μM and DMSO at less than 1% v/v was used as a negative control. After 72 h of treatment 20 μl of CellTiter 96® AQueous reagent was added into each well of the 96-well assay plates and the plate was incubate at 37° C. for 1-4 hours in a humidified, 5% CO2 atmosphere. Then the absorbance of each well was recorded at 490 nm by using a 96-well plate reader. In most cases the assay was performed in triplicates and the results were presented as half maximal inhibitory concentration (IC50) described below. Optical density versus compound concentration was plotted and analyzed using non linear regression equations (Excel Fit) and the IC50 for each compound was calculated.

[2] = Pharmacokinetics (plasma AUC) in mice; format: in vivo; conditions: mouse
Method: Blood was collected from mice (N=3) to contribute to the total of 10 time points (pre-dose, 5 min, 15 min, 30 min, 1 hour, 2 hours, 4 hours, 8 hours, 12 hours and 24 hours post dose). Mice were bled on a rotating basis, each mouse contributing 3 time points to the blood collection. At the designated time points, animals were anaesthetized under isoflurane, and approximately 110 μL of blood per time point was collected via retro-orbital puncture into pre-cooled K2EDTA (anti-coagulant) tubes. Blood samples were put on wet ice and centrifuged (2000 g, 5 min at 4° C.) to obtain plasma within 30 minutes of sample collection. All samples were stored frozen at approximately −80° C. until analysis. Prior to analysis, samples were mixed with internal standard (dexamethasone) in acetonitrile, vortexed, centrifuged, and supernatant was injected for analysis. Concentration of compounds in plasma was determined using LC-MS-MS instrumentation (API 4000, Triple Quadruple with electrospray ionization; Acuity Ultra Performance Liquid Chromatography column C18, with MeOH and formic acid as organic solvents). PK parameters including but not limited to Tmax, Cmax, t1/2, AUClast, AUCinf were calculated using WinNonlin Professional 6.2 software package, non-compartmental pharmacokinetic model NCA200.

[3] = Brain to plasma ratio (B:P) in mice; format: in vivo; conditions: for Kp at 2 h: mouse, brain and plasma, 10 mg/kg po, 2 hours post-dose
Method: Brain tissue following collection was rinsed with cold saline, dried on filter paper, weighed and snap-frozen by placing on dry ice. All samples were stored frozen at approximately −80° C. until analysis. […] Plasma samples were treated with the identical method (except homogenization step) and concentration of compound in either matrix was calculated based on the generated standard curves.

CRM1 = target: T1, CRM1 (Homo sapiens, UniProt O14980); assay: RevGFP assay: inhibition of CRM1 mediated nuclear export; format: cell-based; conditions: U2OS-RevGFP cells, ~1 hr with compound; read-out: Rev Export [IC50]
T1 construct: endogenous in cells; host or cells: U2OS-RevGFP cells
T1 sequence (O14980 whole entry): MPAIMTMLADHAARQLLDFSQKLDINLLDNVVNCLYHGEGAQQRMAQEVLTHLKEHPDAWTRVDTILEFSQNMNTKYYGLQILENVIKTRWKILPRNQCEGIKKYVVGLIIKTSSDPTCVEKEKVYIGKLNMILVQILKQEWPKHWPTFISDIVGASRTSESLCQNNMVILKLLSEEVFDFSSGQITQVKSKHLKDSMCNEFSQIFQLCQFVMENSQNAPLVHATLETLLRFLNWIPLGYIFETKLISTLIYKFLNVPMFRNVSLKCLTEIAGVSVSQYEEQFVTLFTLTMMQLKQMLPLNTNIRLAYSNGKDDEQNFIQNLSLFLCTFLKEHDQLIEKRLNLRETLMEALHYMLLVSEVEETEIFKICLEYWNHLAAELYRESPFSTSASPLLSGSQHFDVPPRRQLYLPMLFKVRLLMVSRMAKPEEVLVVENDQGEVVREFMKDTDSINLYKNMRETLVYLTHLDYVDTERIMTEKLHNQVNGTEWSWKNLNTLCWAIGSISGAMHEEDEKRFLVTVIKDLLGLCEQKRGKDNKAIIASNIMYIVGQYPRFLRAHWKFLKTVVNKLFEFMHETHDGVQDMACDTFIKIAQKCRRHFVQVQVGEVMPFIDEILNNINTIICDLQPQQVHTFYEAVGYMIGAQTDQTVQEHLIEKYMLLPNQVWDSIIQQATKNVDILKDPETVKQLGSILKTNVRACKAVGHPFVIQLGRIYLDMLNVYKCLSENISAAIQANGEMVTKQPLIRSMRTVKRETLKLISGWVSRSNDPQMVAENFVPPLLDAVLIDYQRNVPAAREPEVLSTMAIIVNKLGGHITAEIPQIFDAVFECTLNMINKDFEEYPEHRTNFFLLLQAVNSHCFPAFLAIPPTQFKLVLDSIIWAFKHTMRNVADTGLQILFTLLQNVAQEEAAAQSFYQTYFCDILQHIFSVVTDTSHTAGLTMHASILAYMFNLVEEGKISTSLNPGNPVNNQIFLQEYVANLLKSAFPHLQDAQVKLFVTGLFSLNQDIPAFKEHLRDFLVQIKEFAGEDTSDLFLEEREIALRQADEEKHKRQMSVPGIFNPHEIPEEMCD
Method: The inhibition of CRM1 mediated nuclear export by compounds of the invention was determined. The inhibitory activity of compounds for the CRM1 protein was determined in the RevGFP assay.
Experimental protocol: Rev is a protein from human immunodeficiency virus type 1 (HIV-1) and contains a nuclear export signal (NES) in its C-terminal domain and a nuclear localization signal (NLS) in its N-terminal domain. Nuclear export of Rev protein is dependent on the classical NES/CRM1 pathway (Neville et al, 1997, Kau et al, 2003). Nuclear accumulation of Rev is observed in cells treated with specific inhibitors of CRM1, such as LMB (Kau et al, 2003). In this assay, U2OS-RevGFP cells are seeded onto clear-bottom, black, 384-well plates the day before the experiment. Compounds are serially diluted 1:2 starting from 40 μM in a separate 384-well plate in DMEM, and then transferred onto cells. Cells are incubated with compound for ˜1 hr before fixation with 3.7% formaldehyde and nuclei staining with Hoechst 33258. The amount of GFP in cell nuclei was measured and compound IC50s were determined (Kau et al, 2003).

Question: Which IC50 at 72 h [1] does the source give for `O=C(/C=C\n1cnc(-c2cc(C(F)(F)F)cc(C(F)(F)F)c2)n1)NNC(=O)C1CCCNC1` (stereo not drawn) [Compound 6, (Z)—N′-(3-(3-(3,5-bis(trifluoromethyl)phenyl)-1H-1,2,4-triazol-1-yl)acryloyl)piperidine-3-carbohydrazide] here?
Answer: Its IC50 at 72 h is < 1000 nM.

Question: With `CC(C)[C@H](N)C(=O)NNC(=O)/C=C\n1cnc(-c2cc(C(F)(F)F)cc(C(F)(F)F)c2)n1` [Compound 7, (S,Z)-2-amino-N′-(3-(3-(3,5-bis(trifluoromethyl)phenyl)-1H-1,2,4-triazol-1-yl)acryloyl)-3-methylbutanehydrazide 2,2,2-trifluoroacetate] as the compound, how does the IC50 at 72 h [1] read?
Answer: Its IC50 at 72 h is < 1000 nM.

Question: With `CN1CCC(C(=O)NNC(=O)/C=C\n2cnc(-c3cc(C(F)(F)F)cc(C(F)(F)F)c3)n2)CC1` [Compound 9, (Z)—N′-(3-(3-(3,5-bis(trifluoromethyl)phenyl)-1H-1,2,4-triazol-1-yl)acryloyl)-1-methylpiperidine-4-carbohydrazide] as the compound, how does the IC50 at 72 h [1] read?
Answer: The IC50 at 72 h was < 1000 nM.

Question: What about the AUC(0-inf) ([2]; 5 mg/kg po) of the same compound?
Answer: The AUC(0-inf) was 671 ng·h/mL.

Question: With `CN(NC(=O)/C=C\n1cnc(-c2cc(C(F)(F)F)cc(C(F)(F)F)c2)n1)C(=O)CN1CCOCC1` [Compound 5, (Z)-3-(3-(3,5-bis(trifluoromethyl)phenyl)-1H-1,2,4-triazol-1-yl)-N′-methyl-N′-(2-morpholinoacetyl)acrylohydrazide] as the compound, how does the IC50 at 72 h [1] read?
Answer: Its IC50 at 72 h is < 1000 nM.

Question: Which IC50 at 72 h [1] does the source give for `CC1COCC(C)N1CC(=O)NNC(=O)/C=C\n1cnc(-c2cc(C(F)(F)F)cc(C(F)(F)F)c2)n1` (stereo not drawn) [Compound 13, (Z)-3-(3-(3,5-bis(trifluoromethyl)phenyl)-1H-1,2,4-triazol-1-yl)-N′-(2-(3,5-dimethylmorpholino)acetyl)acrylohydrazide] here?
Answer: Its IC50 at 72 h is < 1000 nM.

Question: And the AUC(0-inf) ([2]; 10 mg/kg po)?
Answer: Its AUC(0-inf) is 1100 ng·h/mL.

Question: And the Kp at 2 h [3]?
Answer: Its Kp at 2 h is 1.5.

Question: Which results are given for `Cc1[nH]ncc1C(=O)NNC(=O)/C=C\n1cnc(-c2cc(C(F)(F)F)cc(C(F)(F)F)c2)n1` [Compound 3, (Z)—N′-(3-(3-(3,5-bis(trifluoromethyl)phenyl)-1H-1,2,4-triazol-1-yl)acryloyl)-5-methyl-1H-pyrazole-4-carbohydrazide]?
Answer: IC50 at 72 h [1]: < 1000 nM; pIC50 (CRM1): > 6.00; AUC(0-inf) ([2]; 10 mg/kg po): 15200 ng·h/mL; Kp at 2 h [3]: 0.03

Question: For `O=C(/C=C\n1cnc(-c2cc(C(F)(F)F)cc(C(F)(F)F)c2)n1)NNC(=O)c1cnccn1` [Compound 8, (Z)—N′-(3-(3-(3,5-bis(trifluoromethyl)phenyl)-1H-1,2,4-triazol-1-yl)acryloyl)pyrazine-2-carbohydrazide], which IC50 at 72 h [1] is on record?
Answer: Its IC50 at 72 h is < 1000 nM.

Question: And the AUC(0-inf) ([2]; 10 mg/kg po)?
Answer: The AUC(0-inf) was 9150 ng·h/mL.

Question: What about the Kp at 2 h [3] of the same compound?
Answer: The Kp at 2 h was 0.41.

Question: For `O=C(/C=C\n1cnc(-c2cc(C(F)(F)F)cc(C(F)(F)F)c2)n1)NNC(=O)Cc1cnccn1` [Compound 11, (Z)-3-(3-(3,5-bis(trifluoromethyl)phenyl)-1H-1,2,4-triazol-1-yl)-N′-(2-(pyrazin-2-yl)acetyl)acrylohydrazide], which IC50 at 72 h [1] is on record?
Answer: Its IC50 at 72 h is < 1000 nM.

Question: What about the AUC(0-inf) ([2]; 10 mg/kg po) of the same compound?
Answer: The AUC(0-inf) was 8340 ng·h/mL.

Question: What about the Kp at 2 h [3] of the same compound?
Answer: The Kp at 2 h was 0.095.

Question: What does the source list for `CC1(C)COCCN1CC(=O)NNC(=O)/C=C\n1cnc(-c2cc(C(F)(F)F)cc(C(F)(F)F)c2)n1` [Compound 15, (Z)-3-(3-(3,5-bis(trifluoromethyl)phenyl)-1H-1,2,4-triazol-1-yl)-N′-(2-(3,3-dimethylmorpholino)acetyl)acrylohydrazide]?
Answer: IC50 at 72 h [1]: < 1000 nM; AUC(0-inf) ([2]; 10 mg/kg po): 588 ng·h/mL; Kp at 2 h [3]: 0

Question: Which IC50 at 72 h [1] does the source give for `O=C(/C=C\n1cnc(-c2cc(C(F)(F)F)cc(C(F)(F)F)c2)n1)NNC(=O)CN1CCOCC1=O` [Compound 14, (Z)-3-(3-(3,5-bis(trifluoromethyl)phenyl)-1H-1,2,4-triazol-1-yl)-N′-(2-(3-oxomorpholino)acetyl)acrylohydrazide] here?
Answer: Its IC50 at 72 h is < 1000 nM.

Question: What about the AUC(0-inf) ([2]; 10 mg/kg po) of the same compound?
Answer: The AUC(0-inf) was 1420 ng·h/mL.

Question: What about the Kp at 2 h [3] of the same compound?
Answer: Its Kp at 2 h is 0.

Question: For `CC(C)[C@@H](N)C(=O)NNC(=O)/C=C\n1cnc(-c2cc(C(F)(F)F)cc(C(F)(F)F)c2)n1` [Compound 10, (R,Z)-2-amino-N′-(3-(3-(3,5-bis(trifluoromethyl)phenyl)-1H-1,2,4-triazol-1-yl)acryloyl)-3-methylbutanehydrazide 2,2,2-trifluoroacetate], which IC50 at 72 h [1] is on record?
Answer: The IC50 at 72 h was < 1000 nM.

Question: With `O=C(/C=C\n1cnc(-c2cc(C(F)(F)F)cc(C(F)(F)F)c2)n1)NNC(=S)NC1CC1` [Compound 4, (Z)-2-(3-(3-(3,5-bis(trifluoromethyl)phenyl)-1H-1,2,4-triazol-1-yl)acryloyl)-N-cyclopropylhydrazinecarbothioamide] as the compound, how does the IC50 at 72 h [1] read?
Answer: Its IC50 at 72 h is < 1000 nM.

Question: And the AUC(0-inf) ([2]; 10 mg/kg po)?
Answer: Its AUC(0-inf) is 20900 ng·h/mL.

Question: And the Kp at 2 h [3]?
Answer: The Kp at 2 h was 0.028.

Question: Which results are given for `COc1cc(-c2ncn(/C=C\C(=O)OC(C)C)n2)cc(C(F)(F)F)c1` [Compound X-1, reference compound]?
Answer: IC50 at 72 h [1]: < 1000 nM; pIC50 (CRM1): > 6.00; AUC(0-inf) ([2]; 5 mg/kg iv): 209 ng·h/mL; levels in the brain ([3]; dosed po): below the quantitation limit

Question: Which IC50 at 72 h [1] does the source give for `O=C(/C=C\n1cnc(-c2cc(C(F)(F)F)cc(C(F)(F)F)c2)n1)NNC(=O)C(=O)N1CCOCC1` [Compound 12, (Z)-3-(3-(3,5-bis(trifluoromethyl)phenyl)-1H-1,2,4-triazol-1-yl)-N′-(2-morpholino-2-oxoacetyl)acrylohydrazide] here?
Answer: The IC50 at 72 h was < 1000 nM.

Question: And the pIC50 (CRM1)?
Answer: Its pIC50 is > 6.00.

Question: And the AUC(0-inf) ([2]; 10 mg/kg po)?
Answer: Its AUC(0-inf) is 19600 ng·h/mL.

Question: What about the Kp at 2 h [3] of the same compound?
Answer: Its Kp at 2 h is 0.06.
